These results are taken from patent publication US8198279B2, “Pyrido[2,3-b]pyrazin-8-substituted compounds and their use” (Institute of Cancer Research: Royal Cancer Hospital (The), priority 2007, dated 2012).

Molecules are shown by their SMILES.

The subject of experiment [1] is WM266.4 melanoma cells. The experiment can be described thus: SRB Cell Proliferation Assay (SRB GI50). It is filed as cell-based. The following applies: Homo sapiens, WM 266-4, 144 h, 6 days growth. In outline: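 WM266.4 cells (1000/well) grown 6 days with compound at 100 μM to 0.005 μM (3-fold dilutions) in DMEM/10% FBS at 37 °C. Cells TCA-fixed, sulphorhodamine-B stained, A540 read. GI50 is the concentration giving A540, as % of untreated control, midway between the plateaus.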

Experiment [2] has as its target T1, B-RAF (Homo sapiens, UniProt P15056, V600E).
T1 construct: made in house
The experiment can be described thus: DELFIA Kinase Assay. The following applies: 100 μM ATP, GST-MEK substrate. It is filed as biochemical. Summed up: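 Recombinant B-RAF (V600E) with GST-MEK substrate was preincubated with compound for 10 min at room temperature, then reacted with 100 μM ATP for 45 min on milk-preblocked wells, with antibody detection by DELFIA europium fluorescence. Response is taken as % of DMSO control after empty-vector blank subtraction; IC50 is from a variable-slope sigmoidal fit, mean of usually three independent runs.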

The subject of experiment [3] is pERK. The experiment can be described thus: Cell Based Phospho-ERK Assay. The following applies: 6 h, 6 hours incubation with test compound. The method, then: Biological Methods—Cell Based Phosho-ERK Assay
Compounds were assessed using a cell-based assay which was performed according to the following protocol.
Plate out 16,000 cells/well in 99 μL medium in a 96-well plate.
• 1. Add 1 μL inhibitor to the cells (total […] solution). • 2. Incubate the cells with test compound for 6 hours at 37° C. • 3. Aspirate off the solution from all of the wells. • 4. Fixate the cells with 100 μL 4% formaldehyde/0.25% Triton X-100 PBS per well. • 5. Incubate the plate for 1 hour at 4° C. • 6. Aspirate off the fixing solution and add 300 μL TBS per well. • 7. Leave the plate overnight at 4° C. Day 2: • 1. Wash the plate 2× with 200 μL PBS per well. • 2. Block with 100 μL 5% dried milk in TBS. • 3. Incubate the plate for 20 minutes at 37° C. • 4. Wash the plate 2× with 0.1% tween/H2O. • 5. Add 50 μL of 3 μg/mL primary antibody pERK (Sigma M8159), diluted in 5% milk powder/TBS, to each well. • 6. Incubate the plate for 2 hours at 37° C. • 7. Wash the plate 3× with 0.1% tween/H2O. • 8. Add 50 μL of 0.45 μg/mL secondary Europium-labelled anti-mouse antibody (Perkin Elmer) to each well. • 9. Incubate the plate for 1 hour at 37° C. • 10. Wash the plate 3× with 0.1% tween/H2O. • 11. Add 100 μL enhancement solution (Perkin Elmer) to each well. • 12. Leave the plate for approximately 10 minutes at room temperature before gently shaking the plate. • 13. Read Europium Time Resolved Fluorescence in Victor2. • 14. Wash the plate 2× with 0.1% tween/H2O. • 15. Measure the protein concentration with BCA (Sigma) by adding 200 μL of solution per well. • 16. Incubate the plate for 30 minutes at 37° C. • 17. Read absorbance levels at 570 nm in a plate reader.
Note that Europium counts are normalised for protein levels by dividing counts by absorbance.
Values for the blank (no cells) are subtracted from all values. The DMSO controls are set as 100% activity and assay points (the response) are calculated as a percentage of the DMSO control. Data are plotted using Graphpad Prism software and a non-linear regression line is calculated using a variable slope sigmoidal dose-response equation (Y=Bottom+(Top−Bottom)/(1+10^((LogEC50−X)*HillSlope)) where X is the logarithm of concentration. Y is the response). The IC50 generated by this procedure is the concentration of the drug that produces a percentage control fluorescence value midway between the saturation, and zero-effect plateaus. Three independent assays are usually performed and the mean IC50 is reported.

T1 sequence (P15056 whole entry V600E): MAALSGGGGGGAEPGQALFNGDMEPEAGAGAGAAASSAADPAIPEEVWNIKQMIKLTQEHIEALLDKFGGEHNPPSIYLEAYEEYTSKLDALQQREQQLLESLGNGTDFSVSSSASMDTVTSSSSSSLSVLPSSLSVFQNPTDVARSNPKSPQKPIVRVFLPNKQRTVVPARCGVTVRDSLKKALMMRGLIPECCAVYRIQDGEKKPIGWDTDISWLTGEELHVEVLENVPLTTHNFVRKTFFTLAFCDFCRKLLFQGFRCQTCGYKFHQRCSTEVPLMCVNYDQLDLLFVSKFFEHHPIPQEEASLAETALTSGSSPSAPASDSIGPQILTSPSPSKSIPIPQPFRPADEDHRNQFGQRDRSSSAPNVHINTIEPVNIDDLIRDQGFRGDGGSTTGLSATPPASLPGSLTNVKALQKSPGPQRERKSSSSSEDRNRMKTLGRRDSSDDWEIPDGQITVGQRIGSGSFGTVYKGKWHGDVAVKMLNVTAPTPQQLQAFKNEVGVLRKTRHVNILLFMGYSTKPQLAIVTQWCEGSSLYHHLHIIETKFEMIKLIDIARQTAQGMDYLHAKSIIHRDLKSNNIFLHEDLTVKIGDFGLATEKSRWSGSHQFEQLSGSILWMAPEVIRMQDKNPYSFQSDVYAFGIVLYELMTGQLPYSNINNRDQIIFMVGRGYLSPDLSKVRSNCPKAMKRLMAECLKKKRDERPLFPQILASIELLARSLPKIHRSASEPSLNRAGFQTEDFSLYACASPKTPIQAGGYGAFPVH

By GI50 is commonly meant the concentration giving 50% growth inhibition. Higher therefore signals lower sensitivity of the cells. As usually defined, the IC50 is the concentration that inhibits the measured activity by half. A low value points to inhibition by little substance. Consider `COc1ccc(-n2nc(C(C)(C)C)cc2NC(=O)Nc2ccc(Oc3ccnc4[nH]c(=O)cnc34)cc2SC)cn1` [AA-063, 1-(3-tert-butyl-1-(6-methoxypyridin-3-yl)-1H-pyrazol-5-yl)-3-(2-(methylthio)-4-(3-oxo-3,4-dihydropyrido[2,3-b]pyrazin-8-yloxy)phenyl)urea], for which the GI50 in experiment [1] is < 1000 nM. Moreover, the IC50 in experiment [2] is < 100 nM; in experiment [3] it was < 1000 nM.
`CC(C)(C)c1cc(NC(=O)Nc2ccc(Oc3ccnc4[nH]c(=O)c(=O)[nH]c34)cc2F)n(-c2ccccc2)n1` [AA-091, 1-(3-Tert-butyl-1-phenyl-1H-pyrazol-5-yl)-3-(4-(2,3-dioxo-1,2,3,4-tetrahydropyrido[3,2-b]pyrazin-8-yloxy)-2-fluorophenyl)urea]: the GI50 in experiment [1] is < 1000 nM. Besides, the values for the IC50 in experiment [2] and in experiment [3] were 100 to 1000 nM and < 1000 nM, respectively.
Consider `CSc1cc(Oc2ccnc3[nH]c(=O)c(C)nc23)ccc1NC(=O)Nc1cc(C(C)(C)C)nn1-c1ccccc1` [AA-065, 1-(3-tert-butyl-1-phenyl-1H-pyrazol-5-yl)-3-(4-(2-methyl-3-oxo-3,4-dihydropyrido[2,3-b]pyrazin-8-yloxy)-2-(methylthio)phenyl)urea], for which the GI50 in experiment [1] was < 1000 nM. Besides, the IC50 was < 100 nM in experiment [2] and < 1000 nM in experiment [3].
Regarding `Cc1ccc(-n2nc(C(C)(C)C)cc2NC(=O)Nc2ccc(Oc3ccnc4[nH]c(=O)cnc34)c(F)c2)cc1` [AA-088, 1-(3-tert-butyl-1-p-tolyl-1H-pyrazol-5-yl)-3-(3-fluoro-4-(3-oxo-3,4-dihydropyrido[2,3-b]pyrazin-8-yloxy)phenyl)urea], the GI50 in experiment [1] is < 1000 nM. Moreover, the IC50 in experiment [2] was < 100 nM; in experiment [3] it was < 1000 nM.
Regarding `CC(C)(C)c1cc(NC(=O)Nc2ccc(Oc3ccnc4[nH]c(=O)c(N)nc34)c3ccccc23)n(-c2ccccc2)n1` [AA-080, 1-(4-(2-amino-3-oxo-3,4-dihydropyrido[2,3-b]pyrazin-8-yloxy)naphthalen-1-yl)-3-(3-tert-butyl-1-phenyl-1H-pyrazol-5-yl)urea], the GI50 in experiment [1] was < 1000 nM. For the same molecule, the IC50 in experiment [2] is < 100 nM; in experiment [3] it was < 1000 nM.
For `CSc1cc(Oc2ccnc3ncc(=O)[nH]c23)ccc1NC(=O)Nc1cc(C(C)(C)C)nn1-c1ccccc1` [AA-066, 1-(3-tert-butyl-1-phenyl-1H-pyrazol-5-yl)-3-(2-(methylthio)-4-(2-oxo-1,2-dihydropyrido[2,3-b]pyrazin-8-yloxy)phenyl)urea], the GI50 in experiment [1] was < 1000 nM. Further, the IC50 is 100 to 1000 nM in experiment [2] and < 1000 nM in experiment [3].
Regarding `Cc1ccc(-n2nc(C(C)(C)C)cc2NC(=O)Nc2cccc(Oc3ccnc4[nH]c(=O)c(C)nc34)c2)cc1` [AA-078, 1-(3-tert-butyl-1-p-tolyl-1H-pyrazol-5-yl)-3-(3-(2-methyl-3-oxo-3,4-dihydropyrido[2,3-b]pyrazin-8-yloxy)phenyl)urea], in experiment [1], the GI50 was < 1000 nM. The IC50 in experiment [2] is 100 to 1000 nM; in experiment [3], < 1000 nM.
With `CC(C)(C)c1cc(NC(=O)Nc2ccc(Oc3ccnc4nc(N)c(=O)[nH]c34)c3ccccc23)n(-c2ccccc2)n1` [AA-081, 1-(4-(3-amino-2-oxo-1,2-dihydropyrido[2,3-b]pyrazin-8-yloxy)naphthalen-1-yl)-3-(3-tert-butyl-1-phenyl-1H-pyrazol-5-yl)urea], the GI50 in experiment [1] is < 1000 nM. Besides, the results for the IC50 in experiment [2] and in experiment [3] were 100 to 1000 nM and < 1000 nM, respectively.
In turn, `O=C(Nc1ccc(Oc2ccnc3[nH]c(=O)c(=O)[nH]c23)cc1F)Nc1cc(C(F)(F)F)ccc1F` [AA-072, 1-(4-(2,3-Dioxo-1,2,3,4-tetrahydropyrido[3,2-b]pyrazin-8-yloxy)-2-fluorophenyl)-3-(2-fluoro-5-(trifluoromethyl)phenyl)urea] returned a GI50 in experiment [1] of 1000 to 10000 nM. The IC50 in experiment [2] was < 100 nM; in experiment [3], < 1000 nM.
`O=C(Nc1ccc(Oc2ccnc3[nH]c(=O)cnc23)cc1F)Nc1cc(C(F)(F)F)ccc1-n1cccn1` [AA-094, 1-(2-(1H-pyrazol-1-yl)-5-(trifluoromethyl)phenyl)-3-(2-fluoro-4-(3-oxo-3,4-dihydropyrido[3,2-b]pyrazin-8-yloxy)phenyl)urea] displayed a GI50 in experiment [1] of 1000 to 10000 nM. Besides, the IC50 in experiment [2] is < 100 nM; in experiment [3], < 1000 nM.
Consider `Cc1ccc(-n2nc(C(C)(C)C)cc2NC(=O)Nc2ccc(Oc3ccnc4[nH]c(=O)c(N)nc34)c3ccccc23)cc1` [AA-077, 1-(4-(2-amino-3-oxo-3,4-dihydropyrido[2,3-b]pyrazin-8-yloxy)naphthalen-1-yl)-3-(3-tert-butyl-1-p-tolyl-1H-pyrazol-5-yl)urea], for which, in experiment [1], the GI50 was < 1000 nM. Further, the IC50 in experiment [2] is 100 to 1000 nM; in experiment [3] it was < 1000 nM.
Regarding `O=C(Nc1cncc(C(F)(F)F)c1)Nc1ccc(Oc2ccnc3[nH]c(=O)cnc23)cc1F` [AA-069, 1-(2-fluoro-4-(3-oxo-3,4-dihydropyrido[2,3-b]pyrazin-8-yloxy)phenyl)-3-(5-(trifluoromethyl)pyridin-3-yl)urea], the GI50 in experiment [1] fell in the range of 1000 to 10000 nM. In addition, the IC50 is < 100 nM in experiment [2] and 1000 to 10000 nM in experiment [3].
On to `Cc1ccc(-n2nc(C(C)(C)C)cc2NC(=O)Nc2ccc(Oc3ccnc4[nH]c(=O)c(=O)[nH]c34)cc2F)cc1` [AA-074, 1-(3-Tert-butyl-1-p-tolyl-1H-pyrazol-5-yl)-3-(4-(2,3-dioxo-1,2,3,4-tetrahydropyrido[3,2-b]pyrazin-8-yloxy)-2-fluorophenyl)urea], for which the GI50 in experiment [1] was < 1000 nM. The IC50 in experiment [2] was < 100 nM; in experiment [3] it was < 1000 nM.
